Source: the NIST ThermoML archive (doi:10.1021/je060457+)
Numbers after ± are expanded uncertainties.

Experiments:
[1] = 101 kPa, Liquid; for viscosity: Capillary tube (Ostwald / Ubbelohde) method; for mass density: Vibrating tube method
[2] = refractive index (Na D-line) (dimensionless); conditions: 101.33 kPa, Liquid, Standard Abbe refractometry
[3] = xn = mol fraction of the nth substance listed; conditions: 101 kPa, Liquid, x2 = 0; for viscosity: Capillary tube (Ostwald / Ubbelohde) method; for mass density: Vibrating tube method
[4] = refractive index (Na D-line) (dimensionless); xn = mol fraction of the nth substance listed; conditions: 101 kPa, Liquid, Standard Abbe refractometry, x2 = 0

CNCCO [2-(methylamino)ethanol]
Conditions | mass density, [1] [kg/m3] | refractive index, [2] | viscosity, [1] [mPa·s]
293.15 K | – | 1.4393 ± 0.0006 | –
298.15 K | 936.18 ± 0.76 | 1.4375 ± 0.0006 | 10.51 ± 0.16
303.15 K | 932.26 ± 0.76 | 1.4356 ± 0.0006 | 8.522 ± 0.13
308.15 K | – | 1.4339 ± 0.0007 | –
313.15 K | 924.42 ± 0.75 | 1.4318 ± 0.0007 | 5.833 ± 0.087
318.15 K | – | 1.4298 ± 0.0007 | –
323.15 K | 916.48 ± 0.74 | 1.4278 ± 0.0007 | 4.177 ± 0.063
333.15 K | 908.46 ± 0.73 | – | 3.108 ± 0.047
343.15 K | 900.3 ± 0.72 | – | 2.385 ± 0.036

O [water] + CNCCO
Conditions | mass density, [3] [kg/m3] | refractive index, [4] | viscosity, [3] [mPa·s]
293.15 K | – | 1.3331 ± 0.0004 | –
298.15 K | – | 1.3326 ± 0.0004 | 0.8824 ± 0.011
303.15 K | – | 1.332 ± 0.0004 | 0.8047 ± 0.01
308.15 K | – | 1.3314 ± 0.0004 | –
313.15 K | 992.26 ± 0.23 | 1.3307 ± 0.0004 | 0.6596 ± 0.0084
318.15 K | – | 1.3299 ± 0.0004 | –
323.15 K | 988.05 ± 0.23 | 1.3291 ± 0.0004 | 0.5507 ± 0.0071
333.15 K | 983.19 ± 0.23 | – | 0.4703 ± 0.0061
343.15 K | 977.78 ± 0.23 | – | 0.4074 ± 0.0053
